20 compounds from US8901118B2, “Compounds and methods for kinase modulation, and indications therefor” (Plexxikon Inc., priority 2010, dated 2014) can be followed below.

One assay concerns the target T1, BCR-NTRK1 BaF3 cells (Homo sapiens, UniProt P04629).
T1 construct: fused on or other part: P11274 (Breakpoint cluster region protein)
The assay is described as follows: BaF3 BCR-NTRK1 cell proliferation assay (ATPlite). In kind it is cell-based. The conditions noted are these: read-out: Inhibition of Cell Proliferation IC50, BCR/BaF3 TrkA. Put shortly: (§1)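 Cells are plated overnight: BaF3 at 10,000/well in G418 medium without WEHI/IL-3, MV-4-11 at 25,000/well in IMDM with 10% FBS. An 8-point 1:3 compound titration (10 μM top) is then added, and plates are incubated 3 days at 37 °C before ATPlite readout and IC50 determination.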

For another assay, the target named is T2, BCR-NTRK3 BaF3 cells (Homo sapiens, UniProt Q16288).
T2 construct: fused on or other part: P11274 (Breakpoint cluster region protein)
T2 sequence (Q16288 whole entry, the tested form may be a part): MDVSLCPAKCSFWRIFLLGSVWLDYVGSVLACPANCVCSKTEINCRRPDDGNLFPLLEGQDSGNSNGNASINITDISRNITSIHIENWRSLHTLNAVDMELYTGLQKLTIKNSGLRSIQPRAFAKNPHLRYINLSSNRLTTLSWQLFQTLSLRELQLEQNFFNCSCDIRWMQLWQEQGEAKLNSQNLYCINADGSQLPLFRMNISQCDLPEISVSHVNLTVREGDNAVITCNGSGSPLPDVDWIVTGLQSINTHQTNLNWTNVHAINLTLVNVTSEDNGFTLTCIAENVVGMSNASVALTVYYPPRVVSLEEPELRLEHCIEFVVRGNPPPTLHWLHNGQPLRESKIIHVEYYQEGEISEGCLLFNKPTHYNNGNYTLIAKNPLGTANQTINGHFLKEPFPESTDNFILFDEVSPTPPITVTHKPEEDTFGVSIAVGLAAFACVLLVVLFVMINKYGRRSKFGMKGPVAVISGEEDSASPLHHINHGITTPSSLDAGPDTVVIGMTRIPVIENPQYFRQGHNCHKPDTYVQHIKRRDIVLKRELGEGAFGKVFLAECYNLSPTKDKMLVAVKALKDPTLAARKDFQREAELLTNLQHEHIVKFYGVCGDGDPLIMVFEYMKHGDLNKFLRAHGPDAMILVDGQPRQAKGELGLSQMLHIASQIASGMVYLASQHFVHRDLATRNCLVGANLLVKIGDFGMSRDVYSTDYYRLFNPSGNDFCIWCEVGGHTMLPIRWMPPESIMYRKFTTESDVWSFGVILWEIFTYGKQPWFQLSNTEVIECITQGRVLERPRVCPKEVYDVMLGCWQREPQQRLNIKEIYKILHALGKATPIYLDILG
The assay is described as follows: BaF3 BCR-NTRK3 cell proliferation assay (ATPlite). The following applies: read-out: Inhibition of Cell Proliferation IC50, BCR/BaF3 TrkC. In kind it is cell-based. In a few lines: as §1
A general note: In ATP-based viability assays light output follows the ATP content of the culture.

The next assay has as its target CYP3A4(BFC) (Homo sapiens, UniProt P08684). The assay is described as follows: CYP3A4(BFC) inhibition. Format: in vitro ADME. The following applies: CYP3A4, substrate BFC; read-out: Cyp IC50 3A4(BFC). Put shortly:
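This fluorescence assay tracks how test compounds reduce CYP3A4 turnover of BFC, with enzyme and substrate from BD Biosciences. A 10-point 1:1 dilution series in cofactor mix (1.3% NADPH Regeneration Solution A, 1.04% Solution B, 5% acetonitrile, 0.05% DMSO) was dispensed at 10 μL into 384 well plates, preincubated 10 minutes at 37° C, then incubated 30 min and read on a Tecan Safire 2.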

The next assay deals with T3, BCR-KIT BaF3 cells (Homo sapiens, UniProt P10721).
T3 construct: fused on or other part: P11274 (Breakpoint cluster region protein)
T3 sequence (P10721 589-937): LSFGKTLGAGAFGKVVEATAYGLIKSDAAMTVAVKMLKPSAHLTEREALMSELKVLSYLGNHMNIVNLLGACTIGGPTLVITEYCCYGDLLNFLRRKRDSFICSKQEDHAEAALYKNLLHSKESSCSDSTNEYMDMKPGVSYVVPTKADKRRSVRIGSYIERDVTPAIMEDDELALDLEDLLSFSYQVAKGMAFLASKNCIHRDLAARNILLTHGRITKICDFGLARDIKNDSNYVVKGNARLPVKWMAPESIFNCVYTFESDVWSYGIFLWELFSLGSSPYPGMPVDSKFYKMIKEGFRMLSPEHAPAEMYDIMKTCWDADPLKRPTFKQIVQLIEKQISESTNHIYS
The assay is described as follows: BaF3 BCR-KIT cell proliferation assay (ATPlite). The conditions noted are these: read-out: Inhibition of Cell Proliferation IC50, BCR/BaF3 Kit. In kind it is cell-based. In a few lines: as §1

Molecules are shown by their SMILES.

T1 sequence (P04629 510-781): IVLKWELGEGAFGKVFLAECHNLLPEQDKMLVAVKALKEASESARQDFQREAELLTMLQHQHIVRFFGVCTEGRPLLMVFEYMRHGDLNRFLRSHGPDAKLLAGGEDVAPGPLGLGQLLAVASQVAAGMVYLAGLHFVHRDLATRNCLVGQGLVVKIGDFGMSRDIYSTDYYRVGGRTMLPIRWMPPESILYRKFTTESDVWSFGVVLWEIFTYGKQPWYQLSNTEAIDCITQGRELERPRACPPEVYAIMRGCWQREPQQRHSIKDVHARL
Chain of CYP3A4(BFC) (P08684 whole entry): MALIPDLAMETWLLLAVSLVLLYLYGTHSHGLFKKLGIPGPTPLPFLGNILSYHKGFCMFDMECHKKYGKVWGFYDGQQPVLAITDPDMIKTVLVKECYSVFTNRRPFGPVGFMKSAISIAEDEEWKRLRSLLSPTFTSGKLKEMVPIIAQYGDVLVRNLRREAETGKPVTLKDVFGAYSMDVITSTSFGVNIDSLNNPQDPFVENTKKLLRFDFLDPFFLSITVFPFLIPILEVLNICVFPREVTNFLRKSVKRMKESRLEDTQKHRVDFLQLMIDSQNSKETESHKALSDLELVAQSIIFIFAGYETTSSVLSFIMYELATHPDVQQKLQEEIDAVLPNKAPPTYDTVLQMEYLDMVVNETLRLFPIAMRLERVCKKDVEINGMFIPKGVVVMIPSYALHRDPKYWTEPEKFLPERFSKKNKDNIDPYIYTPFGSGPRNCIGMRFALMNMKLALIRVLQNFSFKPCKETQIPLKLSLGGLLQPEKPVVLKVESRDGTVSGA

As to `COc1ccc(Nc2ccc(C(=O)c3c[nH]c4ncnc(NCC5CCCO5)c34)c(F)n2)cn1` (centres unmarked) [Compound P-4073, [2-fluoro-6-[(6-methoxy-3-pyridyl)amino]-3-pyridyl]-[4-(tetrahydrofuran-2-ylmethylamino)-7H-pyrrolo[2,3-d]pyrimidin-5-yl]methanone], the IC50 at BCR-NTRK1 BaF3 cells was under 100 nM; at BCR-NTRK3 BaF3 cells it was under 10 nM; on CYP3A4(BFC), over 10 µM; on BCR-KIT BaF3 cells, under 1000 nM.
Turning to `CCN1CCC(Nc2ncnc3[nH]cc(C(=O)c4ccc(Nc5ccc(OC)nc5)nc4F)c23)CC1` [Compound P-4074, [4-[(1-ethyl-4-piperidyl)amino]-7H-pyrrolo[2,3-d]pyrimidin-5-yl]-[2-fluoro-6-[(6-methoxy-3-pyridyl)amino]-3-pyridyl]methanone], the IC50 was under 100 nM at BCR-NTRK1 BaF3 cells, under 10 nM on BCR-NTRK3 BaF3 cells, over 10 µM on CYP3A4(BFC) and under 1000 nM on BCR-KIT BaF3 cells.
On to `COc1ccc(Nc2ccc(C(=O)c3c[nH]c4ncnc(NC5CCCC5)c34)c(F)n2)cn1` [Compound P-4075, [4-(cyclopentylamino)-7H-pyrrolo[2,3-d]pyrimidin-5-yl]-[2-fluoro-6-[(6-methoxy-3-pyridyl)amino]-3-pyridyl]methanone], for which the IC50 is under 10 nM at BCR-NTRK1 BaF3 cells, under 10 nM at BCR-NTRK3 BaF3 cells, over 10 µM on CYP3A4(BFC) and under 100 nM on BCR-KIT BaF3 cells.
Take `COc1ccc(Nc2ccc(C(=O)c3c[nH]c4ncnc(NC5CCC5)c34)c(F)n2)cn1` [Compound P-4076, [4-(cyclobutylamino)-7H-pyrrolo[2,3-d]pyrimidin-5-yl]-[2-fluoro-6-[(6-methoxy-3-pyridyl)amino]-3-pyridyl]methanone]: the IC50 at BCR-NTRK1 BaF3 cells was under 10 nM; on BCR-NTRK3 BaF3 cells it was under 10 nM; on CYP3A4(BFC), over 10 µM; at BCR-KIT BaF3 cells it was under 100 nM.
Take `CCC(CC)Nc1ncnc2[nH]cc(C(=O)c3ccc(Nc4ccc(OC)nc4)nc3F)c12` [Compound P-4077, [4-(1-ethylpropylamino)-7H-pyrrolo[2,3-d]pyrimidin-5-yl]-[2-fluoro-6-[(6-methoxy-3-pyridyl)amino]-3-pyridyl]methanone]: the IC50 was under 10 nM on BCR-NTRK1 BaF3 cells, under 10 nM on BCR-NTRK3 BaF3 cells, over 10 µM at CYP3A4(BFC) and under 100 nM on BCR-KIT BaF3 cells.
Consider `CCC(C)Nc1ncnc2[nH]cc(C(=O)c3ccc(Nc4ccc(OC)nc4)nc3F)c12` (centres unmarked) [Compound P-4078, [2-fluoro-6-[(6-methoxy-3-pyridyl)amino]-3-pyridyl]-[4-(sec-butylamino)-7H-pyrrolo[2,3-d]pyrimidin-5-yl]methanone], for which the IC50 is under 10 nM on BCR-NTRK1 BaF3 cells, under 10 nM on BCR-NTRK3 BaF3 cells, over 10 µM on CYP3A4(BFC) and under 100 nM at BCR-KIT BaF3 cells.
On to `COCCCNc1ncnc2[nH]cc(C(=O)c3ccc(Nc4ccc(OC)nc4)nc3F)c12` [Compound P-4079, [2-fluoro-6-[(6-methoxy-3-pyridyl)amino]-3-pyridyl]-[4-(3-methoxypropylamino)-7H-pyrrolo[2,3-d]pyrimidin-5-yl]methanone], for which the IC50 is under 10 nM on BCR-NTRK1 BaF3 cells, under 10 nM at BCR-NTRK3 BaF3 cells, over 10 µM at CYP3A4(BFC) and under 100 nM at BCR-KIT BaF3 cells.
Turning to `CCCCNc1ncnc2[nH]cc(C(=O)c3ccc(Nc4ccc(OC)nc4)nc3F)c12` [Compound P-4080, [4-(butylamino)-7H-pyrrolo[2,3-d]pyrimidin-5-yl]-[2-fluoro-6-[(6-methoxy-3-pyridyl)amino]-3-pyridyl]methanone], the IC50 at BCR-NTRK1 BaF3 cells is under 10 nM; on BCR-NTRK3 BaF3 cells, under 10 nM; on CYP3A4(BFC), over 10 µM; on BCR-KIT BaF3 cells, under 100 nM.
For `CCNc1ncnc2[nH]cc(C(=O)c3ccc(Nc4ccc(OC)nc4)nc3F)c12` [Compound P-4081, [4-(ethylamino)-7H-pyrrolo[2,3-d]pyrimidin-5-yl]-[2-fluoro-6-[(6-methoxy-3-pyridyl)amino]-3-pyridyl]methanone], the IC50 is under 10 nM on BCR-NTRK1 BaF3 cells, under 10 nM at BCR-NTRK3 BaF3 cells, over 10 µM on CYP3A4(BFC) and under 100 nM on BCR-KIT BaF3 cells.
Consider `COc1ccc(Nc2ccc(C(=O)c3c[nH]c4ncnc(NC5CCCCC5)c34)c(F)n2)cn1` [Compound P-4082, [4-(cyclohexylamino)-7H-pyrrolo[2,3-d]pyrimidin-5-yl]-[2-fluoro-6-[(6-methoxy-3-pyridyl)amino]-3-pyridyl]methanone], for which the IC50 on BCR-NTRK1 BaF3 cells is under 10 nM; at BCR-NTRK3 BaF3 cells it was under 10 nM; at CYP3A4(BFC) it was over 10 µM; at BCR-KIT BaF3 cells, under 100 nM.
For `CNc1ncnc2[nH]cc(C(=O)c3ccc(Nc4ccc(OC)nc4)nc3F)c12` [Compound P-4083, [2-fluoro-6-[(6-methoxy-3-pyridyl)amino]-3-pyridyl]-[4-(methylamino)-7H-pyrrolo[2,3-d]pyrimidin-5-yl]methanone], the IC50 on BCR-NTRK1 BaF3 cells is under 10 nM; on BCR-NTRK3 BaF3 cells, under 10 nM; at CYP3A4(BFC), over 10 µM; at BCR-KIT BaF3 cells, under 100 nM.
Take `COc1ccc(Nc2ccc(C(=O)c3c[nH]c4ncnc(NCC(F)(F)F)c34)c(F)n2)cn1` [Compound P-4084, [2-fluoro-6-[(6-methoxy-3-pyridyl)amino]-3-pyridyl]-[4-(2,2,2-trifluoroethylamino)-7H-pyrrolo[2,3-d]pyrimidin-5-yl]methanone]: the IC50 is under 100 nM at BCR-NTRK1 BaF3 cells, under 10 nM at BCR-NTRK3 BaF3 cells, over 10 µM on CYP3A4(BFC) and under 1000 nM at BCR-KIT BaF3 cells.
As to `O=C(c1ccc(NC2CCC(F)(F)CC2)nc1)c1c[nH]c2ncnc(NCC(F)(F)F)c12` [Compound P-4087, [6-[(4,4-difluorocyclohexyl)amino]-3-pyridyl]-[4-(2,2,2-trifluoroethylamino)-7H-pyrrolo[2,3-d]pyrimidin-5-yl]methanone], the IC50 at BCR-NTRK1 BaF3 cells was under 1000 nM; at BCR-NTRK3 BaF3 cells, under 10 nM; on CYP3A4(BFC) it was over 10 µM; at BCR-KIT BaF3 cells, over 1000 nM.
In the same order, the values of `O=C(c1ccc(NC2CCC(F)(F)CC2)nc1)c1c[nH]c2ncnc(NC3CC3)c12` [Compound P-4088, [4-(cyclopropylamino)-7H-pyrrolo[2,3-d]pyrimidin-5-yl]-[6-[(4,4-difluorocyclohexyl)amino]-3-pyridyl]methanone] are under 100 nM, under 10 nM, over 10 µM and under 1000 nM.
In the same order, the values of `CNc1ncnc2[nH]cc(C(=O)c3ccc(NC4CCC(F)(F)CC4)nc3)c12` [Compound P-4089, [6-[(4,4-difluorocyclohexyl)amino]-3-pyridyl]-[4-(methylamino)-7H-pyrrolo[2,3-d]pyrimidin-5-yl]methanone] are under 1000 nM, under 10 nM, over 10 µM and under 1000 nM.
In the same order, the values of `O=C(c1ccc(Nc2ccc(C3CC3)nc2)nc1F)c1c[nH]c2ncnc(NCC(F)(F)F)c12` [Compound P-4090, [6-[(6-cyclopropyl-3-pyridyl)amino]-2-fluoro-3-pyridyl]-[4-(2,2,2-trifluoroethylamino)-7H-pyrrolo[2,3-d]pyrimidin-5-yl]methanone] are under 100 nM, under 10 nM, over 10 µM and under 1000 nM.
On to `O=C(c1ccc(Nc2ccc(C(F)(F)F)nc2)nc1F)c1c[nH]c2ncnc(NC3CC3)c12` [Compound P-4091, [4-(cyclopropylamino)-7H-pyrrolo[2,3-d]pyrimidin-5-yl]-[2-fluoro-6-[[6-(trifluoromethyl)-3-pyridyl]amino]-3-pyridyl]methanone], for which the IC50 on BCR-NTRK1 BaF3 cells is under 10 nM; on BCR-NTRK3 BaF3 cells it was under 10 nM; at CYP3A4(BFC), over 10 µM; on BCR-KIT BaF3 cells, under 100 nM.
For `CNc1ncnc2[nH]cc(C(=O)c3ccc(Nc4ccc(C(F)(F)F)nc4)nc3F)c12` [Compound P-4092, [2-fluoro-6-[[6-(trifluoromethyl)-3-pyridyl]amino]-3-pyridyl]-[4-(methylamino)-7H-pyrrolo[2,3-d]pyrimidin-5-yl]methanone], the IC50 at BCR-NTRK1 BaF3 cells was under 10 nM; on BCR-NTRK3 BaF3 cells, under 10 nM; on CYP3A4(BFC), over 10 µM; at BCR-KIT BaF3 cells it was under 100 nM.
Take `O=C(c1ccc(Nc2ccc(C3CC3)nc2)nc1F)c1c[nH]c2ncnc(NC3CC3)c12` [Compound P-4093, [4-(cyclopropylamino)-7H-pyrrolo[2,3-d]pyrimidin-5-yl]-[6-[(6-cyclopropyl-3-pyridyl)amino]-2-fluoro-3-pyridyl]methanone]: the IC50 was under 10 nM at BCR-NTRK1 BaF3 cells, under 10 nM at BCR-NTRK3 BaF3 cells, over 10 µM at CYP3A4(BFC) and under 100 nM at BCR-KIT BaF3 cells.
In the case of `CNc1ncnc2[nH]cc(C(=O)c3ccc(Nc4ccc(C5CC5)nc4)nc3F)c12` [Compound P-4094, [6-[(6-cyclopropyl-3-pyridyl)amino]-2-fluoro-3-pyridyl]-[4-(methylamino)-7H-pyrrolo[2,3-d]pyrimidin-5-yl]methanone], the IC50 at BCR-NTRK1 BaF3 cells is under 10 nM; on BCR-NTRK3 BaF3 cells, under 10 nM; at CYP3A4(BFC), over 10 µM; on BCR-KIT BaF3 cells it was under 100 nM.
